# What was measured:
# [1] = Hydrolytic stability of the APL prodrugs monitored by 31P-NMR; assay type: physicochemical
# Text: Aqueous formulation of the APL prodrugs produces nanosized lipid aggregates that most likely enter cells through the endocytosis pathway. To produce the expected intrinsic antineoplastic effect, APL-derived phosphotriesters need to be processed into the bioactive parent APLs. The hydrolysis of the prodrugs may be under the control of a chemical stimulus, e.g., a pH decrease as observed during the maturation of endosomes, or of degradation enzymes that massively enter the endosome compartment when continuing to lysosomes. To get some information on the transformation of pro-APLs into APLs, we monitored the hydrolysis of these compounds over time, at pH 7.4 and 4.5, conditions that mimick the extracellular milieu and the environment of the late endosome, respectively. This monitoring was realized using ^31P-NMR spectroscopy, according to a previously reported method (Pierrat et al., [2013b]). Whatever the compound investigated, only one single ^31P resonance did appear during the course of the experiments, corresponding to that of the parent APL. This confirmed that hydrolysis of the pro-APLs selectively occurred at the acetal center. […] As a general trend, hydrolysis of the pro-APLs was […] under neutral conditions (i.e., pH 7.4) than under acidic ones (i.e., pH 4.5). […] Besides, substitution of one hydrogen atom with a methyl group on the acetal bridge accelerated the rate of hydrolysis of the prodrugs. […] Indeed, in biological media, the enzyme-mediated hydrolysis of such compounds can proceed far quicker than “simple” chemical hydrolysis under pH control (Pierrat et al., [2012]). […]
# [2] = CMC/CAC by pyrene fluorescent probe technique in ultrapure water; assay type: physicochemical; details: pyrene fluorescence
# Protocol: The pro-APL molecules have been specifically engineered so they can be metabolized in situ under a biological stimulus to revert to the parent APL with antiproliferative activity. […] We thus aimed to determine the self-assembly properties of the APL prodrugs. […] Pyrene is a probe which fluorescence is sensitive to the polarity of the solubilizing medium. […] Fluorescence measurements were carried out in ultrapure water and data obtained for the various APLs and their prodrugs are shown in Table 2.
# Pro-APLs Self-Assembly Properties
# Starting from a lipid film, compounds were […]
# A549 cells [3] = assay: Cytotoxicity, MTT assay, A549; assay type: cell-based, human; details: Homo sapiens, A549, 24 h at 37°C
# Protocol: (§1) The cells were exposed for a 24-h period to increasing concentration of the pro-APLs, ranging from 500 nM to 1 mM, and cell viability was assessed using the MTT colorimetric assay (Mosmann, [1983]). For the three cell lines, viability decreased in a dose-dependent manner in response to APLs and pro-APLs (Supplementary Figures 2–4). Using the best-fit regression curve method, the IC50 value (concentration that provokes 50% inhibition of the cell growth) was calculated for each compound (Table 4). The three cell lines responded to the compounds with varying sensitivities. […] This is attributed to enzyme-mediated hydrolysis of the pro-APL compounds in the complemented culture medium or in the intracellular compartment, competing with pure pH-controlled chemical hydrolysis. According to its structure, a pro-APL may or not be a substrate for specific lipases and, thus, may or not be hydrolyzed into the parent cytotoxic compound. […]
# (§2) At confluency, cells were released […]
# (§3) Cells were seeded into 96-well plates (Becton-Dickinson) at the required density (vide supra) in 100 µL of serum containing culture medium. […]
# (§4) Mitochondrial activity measurements (MTT assay) was used to assess cytotoxicity of the compounds.
# (§5) Lipid samples were prepared from a lipid film (3.6 µmol of compound evaporated from an ethanolic solution) hydrated with aqueous glucose 5 % and vigorously vortexed for 20 s before serial dilution in aqueous glucose 5 %. For addition of lipid samples to cell culture, part of the culture medium in the culture plates prepared the day before (25 µL) was removed and replaced by lipid samples (25 µL). Negative control was obtained by adding glucose 5 % to the cells instead of lipoplexes.
# (§6) After a 24-h incubation period at 37 °C, culture supernatant was removed, cells were carefully washed with PBS and MTT (100 µL, 0.5 mg/mL) in complete culture medium was added. After a 1-h incubation period at 37 °C, the MTT sol ution was removed and DMSO (100 µL) was added to lyse cells and dissolve reduced MTT. Intensity of MTT reduction was then evaluated by measuring absorbance at 492 nm. Viability of cells treated with lipids or lipoplexes was expressed as the percentage of the absorbance measured in untreated cells. Value for each sample is the mean of triplicate determinations (± SD). IC50 values were determined within the 95 % confidence interval using nonlinear regression analysis with the GraphPad Prism software (GraphPad Software, San […]
# (§7) All data are representative of a triplicate determination and are presented as the mean ± SD.
# (§8) Statistical significance between treatments was assessed by one-way analysis of variance (ANOVA) followed by the Dunnett multiple comparison test, using the Kaleidagraph 4.5 software (Synergy Software, Reading, PA, USA). Data were considered as statistically significant for p value less than
# H292 cells = assay: Cytotoxicity, MTT assay, H292; assay type: cell-based, human; details: Homo sapiens, NCI-H292, H292, 24 h at 37°C
# Protocol: as §1, §2, §3, §4, §5, §6, §7, §8
# 16HBE cells = assay: Cytotoxicity, MTT assay, 16HBE; assay type: cell-based, human; details: Homo sapiens, 24 h at 37°C
# Protocol: as §1, §2, §3, §4, §5, §6, §7, §8
# [4] = Particle size and zeta potential of lipoplexes by DLS; assay type: physicochemical; details: lipoplexes with pCMV-Gluc, 25 °C, 5 % glucose, N/P 3, 1 molar equivalent of DOPE
# Text: The capacity of the pro-APLs to interact electrostatically with nucleic acids and form lipoplexes was checked by standard agarose gel electrophoresis. […] The size (hydrodynamic diameter) and charge (zeta potential, ζ) of the lipoplexes prepared at an N/P ratio of 3 with one molar equivalent of dioleoyl-sn-glycero-3-phosphatidylethanolamine (DOPE), a lipid with fusogenic properties (Hui et al., [1996]; Zuhorn et al., [2005]), were investigated by DLS (Supplementary Table 1).
# as measured by DLS. Lipoplexes were prepared at 25 °C, in 5 % glucose, at a N/P ratio of 3 and with
# 1 molar equivalent of DOPE.
# (Gaillard et al., 2019). Data are the mean of three independent measurements (± SD).
# A549 cells [5] = assay: Gene transfer efficiency, pCMV-Gluc luciferase reporter gene assay; assay type: cell-based, human; details: A549, N/P 3, 1 eq. DOPE
# Text: The efficacy of the pro-APLs to mediate intracellular delivery of a plasmid DNA was examined in A549 human lung epithelial carcinoma cells using the pCMV-Gluc reporter gene encoding the luciferase of Gaussia princeps. This luciferase is secreted by cells and transgene expression can be conveniently assessed by standard bioluminescence measurements on aliquots of the cell culture supernatant, without need for prior cell lysis. Lipoplexes were formulated in glucose 5% at N/P ratios of 1, 3, and 5, with increasing amounts of DOPE as a helper lipid. They were deposited onto cells in the presence of 10% serum and luciferase activity was measured after 24 h (Figure 3). […] The influence of the nature of the pendant hydrophobic arm was also examined.
# To investigate the effect of serum on the gene delivery properties of the APL prodrugs, cells were treated with lipoplexes in the presence of an increasing concentration of serum (Figure 5). Two DNA doses were considered.
# Figure 5 Transfection efficiency of pro-APLs ME12 (A), PE12 (B), and EE12 (C) as a function of serum content. Pro-APL/DNA complexes were prepared at N/P 3, with 1 molar eq. of DOPE. A549 cells (6,000 cells/well) were seeded into 96-well plates in 100 μL of culture medium containing 10% serum. Twenty-four hours later, cell supernatant was replaced with culture medium complemented with increasing amounts of serum (from 10 to 75%) just before adding the lipoplexes (0.2 and 0.4 μg of DNA per well; light and deep purple bars, resp.). Control (light blue bar) refers to basal bioluminescence measured in untreated cells. […] Statistical significance vs. control. ***p < 0.001, **p < 0.01, *p < 0.05.
smiles,measurement,setting,value
"CCCCCCCCCCCCCCCCCCOP(=O)(OCOC(=O)CCCCCCCCCCC)OC1CC[N+](C)(C)CC1.[Cl-] (stereo not drawn) [PE12, 4-((((Dodecanoyloxy)methoxy)(octadecyloxy)phosphoryl)oxy)-1,1-dimethylpiperidin-1-ium chloride]",H120 (hydrolysis rate after a 120-h incubation period),[1]; pH 4.5,2%
same,H120 (hydrolysis rate after a 120-h incubation period),[1]; pH 7.4,16%
same,CMC (APLs) / CAC (pro-APLs),[2],2.9 ± 1.0 µM
same,IC50,A549 cells [3],139 ± 4 µM
same,IC50,H292 cells,168 ± 7 µM
same,IC50,16HBE cells,231 ± 70 µM
same,Particle size of lipoplexes,[4],330 ± 76 nm
same,Serum content up to which significant transgene expression was mediated,A549 cells [5]; DNA dose 0.2 μg/well,up to 50 % serum
same,Serum content up to which transfection activity extended,A549 cells [5]; DNA dose 0.4 μg/well,up to 75 % serum

# Reference: publication PMC7566913, “Dual Gene Delivery Reagents From Antiproliferative Alkylphospholipids for Combined Antitumor Therapy” (Frontiers in Chemistry, 2020)
